pIC50: −log10 of the molar value.
Key:
[1] = Compound was tested for binding activity against Opioid receptor kappa 1 in bovine striatal membranes using 1 nM [3H]U-69593 as the radioligand.
[2] = Compound was tested for binding activity against Opioid receptor delta 1 in bovine striatal membranes using 0.2 nM [3H]p-CI-DPDPE as the radioligand.

O=C(CSSCC(=O)N[C@@]12CCC(=O)[C@@H]3Oc4c(O)ccc5c4[C@@]31CCN(CC1CCC1)[C@@H]2C5)N[C@@]12CCC(=O)[C@@H]3Oc4c(O)ccc5c4[C@@]31CCN(CC1CCC1)[C@@H]2C5 [N-CBM-TAMO]
pIC50 [1]: 8.20 | pIC50 [2]: 7.92

— BindingDB's records for doi:10.1016/0960-894X(96)00186-2 (1996)
